From patent US7291638B2, “3-amido-1,2-benzoisoxazole derivatives, process for preparation, and use thereof” (Dongwha Pharm. Ind. Co., Ltd., priority 2001, dated 2007)
Like-named read-outs stand apart in the source and are kept apart here. Each block holds one molecule with its values, some of them ahead of it.

Tests used:
osteoclast cell = assay: Change in the number of osteoclast cell in osteoporotic rats induced by ovariectomy; type: in vivo, rat; conditions: for osteoclast cells inducing the osteolysis (in words): osteoporotic rats induced by ovariectomy, group administered the drug; for number of osteoclast cell, Tibia Left / number of osteoclast cell, Tibia Right / number of osteoclast cell, femur Left / number of osteoclast cell, femur Right: ovariectomized rats, cells within 1 mm^2 area, 10 sections, mean±SD, PEG 100 solution, intramuscular injection, 40 days; for number of osteoclast cell, femur Right: same concentration as formula 2 (100 mg per kg)
Description: (§1) To investigate therapeutic value of the osteoporosis to ovariectomized rats, change in the number of osteoclast cell and area ratio of trabecular bone (volume %) were measured.
(§2) After 25 female white rats purchased from Chales River (Japan) were adjusted to a new environment, temperature of 20˜25° C. and relative humidity of 30˜35%. The 5 rats were positioned in a hutch, feed (Sam Yang corporation) and water were supplied to the rats. 20 rats had the operation for the removal of an ovary, 5 rats had the Sham operation for opening and suturing the abdominal cavity, used as Sham control group.
(§3) Also, to compare drug efficacies of EXAMPLE and the compound of formula 2, 5 rats removed of the ovary were used as experimental group. The compound of formula 2 was dissolved in injectable distilled water and administered to the rats orally in an amount of 100 mg per kg for 40 days from 10 weeks after ovariectomy or Sham-operation, using oral sonde. 5 ml/kg was administered to the rats. […] 5 ml/kg was administered to the rats.
(§4) After administration terminated, the femur and tibia were removed from the animals, and fixed in 10% neutral formalin. The fixed tissue was decalcified in a solution (solution mixed 24.4% formic acid and 0.5 N sodium hydroxide) for 5 days, embedded in paraffin and 3˜4 μm sections were prepared. After that prepared section were dyed by hematoxylin-eosin.
Change in the number of osteoclast cell was calculated by mean±standard deviation through the number of the osteoclast cell existed within 1 mm^2 area at the 10 sections. The experiment group administered was compared with the control group not and Sham group.

[1] = system: osteoporotic rat induced by ovariectomy; assay: Area ratio of trabecular bone in osteoporotic rats induced by ovariectomy; type: in vivo; conditions: for area ratio of trabecular bone, Femur Left / area ratio of trabecular bone, Tibia Left / area ratio of trabecular bone, Tibia Right / area ratio of trabecular bone, Femur Right: ovariectomized rats, 40 days
Description: as §1, §2, §3, §4
Also, the area ratio of trabecular bone was calculated at the section of the femur and tibia respectively, through the equation.

[2] = Pharmacokinetics test in rats (oral; plasma concentration of the compound of formula 2 by HPLC); type: in vivo, rat
Description: Male white rats (Sprague-Dawley) having body weights of 230˜260 g were used, 3˜4 rats were tested for a drug. Rats were fasted for 18˜20 hours before the drug was administered. The weight of rat was measured on the day of the experiment, the drug was administered orally to the rats according to dosage. After administration, rats were lightly anesthetized with diethyl ether. At […], 0.17, 0.5, 1.0, 1.5, 3.0, 5.0, 8.0 hours, the blood was collected from orbit vein of the rats by canulation. The collected blood was centrifuged, and the plasma was isolated. To determine concentration of the drug in plasma, HPLC was carried out as follows. Acetonitrile containing internal standard substance and the isolated plasma was mixed in the same amount, followed by centrifuging at 12,000 rpm. The supernatent was applied to HPLC, bioavailability of the compounds prepared in EXAMPLES was measured by analyzing a plasma concentration of the compound of formula 2.
Pharmacokinetics parameters were measured by noncompartmental analysis, using WinNolin (ver. 1.0 Scientific Consulting Inc., USA). Time and maximum plasma concentration were registered by observed data, half life was calculated by linear regression analysis of terminal elimination phase.

[3] = osteoporotic rats induced by ovariectomy
[4] = PEG 100 solution, intramuscular injection
[5] = injectable distilled water, oral, 100 mg per kg
[6] = male Sprague-Dawley rats, 50 mg/kg, vehicle DW (distilled water)
[7] = male Sprague-Dawley rats, 50 mg/kg, vehicle DW (distilled water), analyte compound of formula 2 in plasma
[8] = male Sprague-Dawley rats, 100 mg/kg, vehicle DW (distilled water)

Molecule: COc1cc(C(=O)N(C(C)C)C(C)C)ccc1OCCCCOc1ccc2onc(NC(=O)[C@H](C)N)c2c1.CS(=O)(=O)O [Example 2, (1S)-1-{5-[4-(4-diisopropylcarbamoyl-2-methoxy-phenoxy)-butoxy]-benzo[d]isoxazole-3-ylcarbamoyl)-ethyl-ammonium methane sulfonic acid salt]
osteoclast cells inducing the osteolysis (in words) (osteoclast cell): significantly decreased
number of osteoclast cell, Tibia Left (osteoclast cell): 4.50 ± 1.60*.^#
number of osteoclast cell, Tibia Right (osteoclast cell): 5.63 ± 1.30*.^#
number of osteoclast cell, femur Left (osteoclast cell): 4.50 ± 1.69*.^#
number of osteoclast cell, femur Right (osteoclast cell): 5.00 ± 1.51*.^##
area ratio of trabecular bone compared to the control group (in words) [1, 3]: excellently increased
therapeutic value (area ratio of the trabecular bone) compared with the compound of formula 2 (in words) [1, 3]: more distinguished therapeutic value than the compound of formula 2
area ratio of trabecular bone, Femur Left [1, 4]: 41.95 ± 8.78 volume %
area ratio of trabecular bone, Tibia Left [1, 4]: 40.12 ± 7.20**.^# volume %
area ratio of trabecular bone, Tibia Right [1, 4]: 35.58 ± 9.55*.^## volume %
area ratio of trabecular bone, Femur Right ([1]; PEG 100 solution, intramuscular injection, same concentration as formula 2 (100 mg per kg)): 33.93 ± 3.71*.^## volume %

Total AUC ([2]; male Sprague-Dawley rats, 50 mg/kg, vehicle DMSO): 190 ng·h/mL
Cmax ([2]; male, Sprague-Dawley, rat, plasma, po, 50 mg/kg, male Sprague-Dawley rats, 50 mg/kg, vehicle DMSO, read-out: Cmax): 470 ng/mL
Tmax ([2]; male, Sprague-Dawley, rat, plasma, po, 50 mg/kg, male Sprague-Dawley rats, 50 mg/kg, vehicle DMSO, read-out: Tmax): 10.2 min
Cmax ([2]; male, Sprague-Dawley, rat, plasma, po, 50 mg/kg, male Sprague-Dawley rats, 50 mg/kg, vehicle DW + T (distilled water + tween 80), read-out: Cmax): 80 ng/mL
Tmax ([2]; male, Sprague-Dawley, rat, plasma, po, 50 mg/kg, male Sprague-Dawley rats, 50 mg/kg, vehicle DW + T (distilled water + tween 80), read-out: Tmax): 90 min
drug absorption (in words) ([2]; rat, 50 mg per kg, dissolved in distilled water and tween 80): no drug was absorbed
half-life ([2]; rat, plasma, male Sprague-Dawley rats, 50 mg/kg, vehicle DMSO): 19.2 min
Molecule: COc1cc(C(=O)N(C(C)C)C(C)C)ccc1OCCCCOc1ccc2c(N)noc2c1 [Formula 2, reference compound]
area ratio of trabecular bone, Femur Left [1, 5]: 31.38 ± 7.88*.^## volume %
area ratio of trabecular bone, Femur Right [1, 5]: 31.69 ± 9.83 volume %
area ratio of trabecular bone, Tibia Left [1, 5]: 28.22 ± 5.54 volume %
area ratio of trabecular bone, Tibia Right [1, 5]: 29.35 ± 11.37 volume %

Molecule: {5-[4-(4-diisopropylcarbamoyl-2-methoxy-phenoxy)-butoxy]-benzo[d]isoxazole-3-ylcarbamoyl}-methyl-ammonium methane sulfonic acid salt [Example 1]
osteoclast cells inducing the osteolysis (in words) (osteoclast cell): significantly decreased
number of osteoclast cell, Tibia Left (osteoclast cell): 5.40 ± 2.76*.^##
number of osteoclast cell, Tibia Right (osteoclast cell): 5.30 ± 2.00*.^#
number of osteoclast cell, femur Left (osteoclast cell): 5.10 ± 2.38*.^#
number of osteoclast cell, femur Right (osteoclast cell): 4.90 ± 1.52*.^#
Tmax [2, 6]: 30 min
Total AUC [2, 6]: 5720 ng·h/mL
Cmax [2, 7]: 1530 ng/mL
Cmax [2, 8]: 1510 ng/mL
Tmax [2, 8]: 30 min
Total AUC [2, 8]: 11080 ng·h/mL

Molecule: COc1cc(C(=O)N(C(C)C)C(C)C)ccc1OCCCCOc1ccc2onc(NC(=O)[C@@H](N)C(C)C)c2c1.CS(=O)(=O)O [Example 4, (1S)-1-{5-[4-(4-diisopropylcarbamoyl-2-methoxy-phenoxy)-butoxy]-benzo[d-]isoxazole-3-ylcarbamoyl)-2-methyl-propyl-ammonium methane sulfonic acid salt]
T1/2 [2, 6]: 66.6 min
Tmax [2, 6]: 30 min
Total AUC [2, 6]: 2450 ng·h/mL
Cmax [2, 7]: 980 ng/mL
